The source made the active and inactive calls. The rule behind the calls is not given here.
How the values were obtained:
[1] = target: Histamine H3 receptor (Homo sapiens) (UniProt Q9Y5N1); assay: Binding affinity to H3 receptor (unknown origin) 10 umol/L by radioligand binding assay; settings: dose 10.0 µmol/L
[2] = target: Endothelin-1 receptor (Homo sapiens) (UniProt P25101); assay: Binding affinity to ETA receptor (unknown origin) 10 umol/L by radioligand binding assay; settings: dose 10.0 µmol/L
[3] = target: Muscarinic acetylcholine receptor M3 (Homo sapiens) (UniProt P20309); assay: Binding affinity to muscarinic M3 (unknown origin) 10 umol/L by radioligand binding assay; settings: dose 10.0 µmol/L
[4] = target: Vasopressin V2 receptor (Homo sapiens) (UniProt P30518); assay: Binding affinity to Vasopressin V2 receptor (unknown origin) 10 umol/L by radioligand binding assay; settings: dose 10.0 µmol/L
Homo sapiens [5] = organism: Homo sapiens; assay: Binding affinity to Leukotriene B4 receptor (unknown origin) 10 umol/L by radioligand binding assay; settings: dose 10.0 µmol/L
[6] = target: Neuromedin-K receptor (Homo sapiens) (UniProt P29371); assay: Binding affinity to NK3 receptor (unknown origin) 10 umol/L by radioligand binding assay; settings: dose 10.0 µmol/L
Homo sapiens [7] = organism: Homo sapiens; assay: Binding affinity to Imidazole receptor (unknown origin) 10 umol/L by radioligand binding assay; settings: dose 10.0 µmol/L
[8] = target: Neurotensin receptor type 1 (Homo sapiens) (UniProt P30989); assay: Binding affinity to NT1 receptor (unknown origin) 10 umol/L by radioligand binding assay; settings: dose 10.0 µmol/L
[9] = target: Sodium-dependent dopamine transporter (Homo sapiens) (UniProt Q01959); assay: Binding affinity to dopamine transporter (unknown origin) 10 umol/L by radioligand binding assay; settings: dose 10.0 µmol/L
[10] = Lipophilicity, logD of compound in n-octanol and phosphate buffered saline at 2 mg after 1.5 hrs by HPLC based shake flask method; type: physicochemical; settings: 1.5 h
[11] = target: Alpha-2B adrenergic receptor (Homo sapiens) (UniProt P18089); assay: Binding affinity to alpha2B adrenoreceptor (unknown origin) 10 umol/L by radioligand binding assay; settings: dose 10.0 µmol/L
Homo sapiens [12] = organism: Homo sapiens; assay: Binding affinity to bombesin receptor (unknown origin) 10 umol/L by radioligand binding assay; settings: dose 10.0 µmol/L
[13] = target: Kappa-type opioid receptor (Homo sapiens) (UniProt P41145); assay: Binding affinity to kappa receptor (unknown origin) 10 umol/L by radioligand binding assay; settings: dose 10.0 µmol/L
[14] = target: Beta-1 adrenergic receptor (Homo sapiens) (UniProt P08588); assay: Binding affinity to beta1 adrenoreceptor (unknown origin) 10 umol/L by radioligand binding assay; settings: dose 10.0 µmol/L
[15] = target: T1, Voltage-gated L-type calcium channel (Homo sapiens, UniProt Q13936+Q13698+Q01668+O60840); assay: Binding affinity to Voltage-dependent L-type calcium channel dihydropyridine site (unknown origin) 10 umol/L by radioligand binding assay; type: protein assay; settings: 10 µM, dose 10 µmol/L
[16] = target: Beta-2 adrenergic receptor (Homo sapiens) (UniProt P07550); assay: Binding affinity to beta2 adrenoreceptor (unknown origin) 10 umol/L by radioligand binding assay; settings: dose 10.0 µmol/L
[17] = target: Histamine H2 receptor (Homo sapiens) (UniProt P25021); assay: Binding affinity to H2 receptor (unknown origin) 10 umol/L by radioligand binding assay; settings: dose 10.0 µmol/L
[18] = target: T2, Metabotropic glutamate receptor 3 (Homo sapiens, UniProt Q14832); assay: Agonist activity at human mGlu3 receptor expressed in CHO cell membranes by GTPgammaS binding assay; type: functional, Cell membrane
[19] = target: Androgen receptor (Homo sapiens) (UniProt P10275); assay: Binding affinity to androgen receptor (unknown origin) 10 umol/L by radioligand binding assay; settings: dose 10.0 µmol/L
[20] = target: D(3) dopamine receptor (Homo sapiens) (UniProt P35462); assay: Binding affinity to D3 receptor (unknown origin) 10 umol/L by radioligand binding assay; settings: dose 10.0 µmol/L
Homo sapiens [21] = organism: Homo sapiens; assay: Binding affinity to Monoamine transporter (unknown origin) 10 umol/L by radioligand binding assay; settings: dose 10.0 µmol/L
Homo sapiens [22] = organism: Homo sapiens; assay: Binding affinity to GABAB (unknown origin) 10 umol/L by radioligand binding assay; settings: dose 10.0 µmol/L
Homo sapiens [23] = organism: Homo sapiens; assay: Binding affinity to Voltage-dependent N-type calcium channel (unknown origin) 10 umol/L by radioligand binding assay; settings: dose 10.0 µmol/L
[24] = target: Cannabinoid receptor 1 (Homo sapiens) (UniProt P21554); assay: Binding affinity to CB1 (unknown origin) 10 umol/L by radioligand binding assay; settings: dose 10.0 µmol/L
Homo sapiens [25] = organism: Homo sapiens; assay: Binding affinity to NMDA receptor PCP site (unknown origin) 10 umol/L by radioligand binding assay; settings: dose 10.0 µmol/L
[26] = target: Cysteinyl leukotriene receptor 1 (Homo sapiens) (UniProt Q9Y271); assay: Binding affinity to Leukotriene D4 receptor (unknown origin) 10 umol/L by radioligand binding assay; settings: dose 10.0 µmol/L
[27] = target: D(2) dopamine receptor (Homo sapiens) (UniProt P14416); assay: Binding affinity to D2S receptor (unknown origin) 10 umol/L by radioligand binding assay; settings: dose 10.0 µmol/L
[28] = target: Corticotropin-releasing factor receptor 1 (Homo sapiens) (UniProt P34998); assay: Binding affinity to CRF1(unknown origin) 10 umol/L by radioligand binding assay; settings: dose 10.0 µmol/L
[29] = target: T2, Metabotropic glutamate receptor 3; assay: Agonist activity at human mGlu3 receptor expressed in CHO cell membranes by GTPgammaS binding assay relative to control; type: functional; settings: Cell membrane, filed as agonist
Target sequence in this assay (Q14832 23-879 limits assumed): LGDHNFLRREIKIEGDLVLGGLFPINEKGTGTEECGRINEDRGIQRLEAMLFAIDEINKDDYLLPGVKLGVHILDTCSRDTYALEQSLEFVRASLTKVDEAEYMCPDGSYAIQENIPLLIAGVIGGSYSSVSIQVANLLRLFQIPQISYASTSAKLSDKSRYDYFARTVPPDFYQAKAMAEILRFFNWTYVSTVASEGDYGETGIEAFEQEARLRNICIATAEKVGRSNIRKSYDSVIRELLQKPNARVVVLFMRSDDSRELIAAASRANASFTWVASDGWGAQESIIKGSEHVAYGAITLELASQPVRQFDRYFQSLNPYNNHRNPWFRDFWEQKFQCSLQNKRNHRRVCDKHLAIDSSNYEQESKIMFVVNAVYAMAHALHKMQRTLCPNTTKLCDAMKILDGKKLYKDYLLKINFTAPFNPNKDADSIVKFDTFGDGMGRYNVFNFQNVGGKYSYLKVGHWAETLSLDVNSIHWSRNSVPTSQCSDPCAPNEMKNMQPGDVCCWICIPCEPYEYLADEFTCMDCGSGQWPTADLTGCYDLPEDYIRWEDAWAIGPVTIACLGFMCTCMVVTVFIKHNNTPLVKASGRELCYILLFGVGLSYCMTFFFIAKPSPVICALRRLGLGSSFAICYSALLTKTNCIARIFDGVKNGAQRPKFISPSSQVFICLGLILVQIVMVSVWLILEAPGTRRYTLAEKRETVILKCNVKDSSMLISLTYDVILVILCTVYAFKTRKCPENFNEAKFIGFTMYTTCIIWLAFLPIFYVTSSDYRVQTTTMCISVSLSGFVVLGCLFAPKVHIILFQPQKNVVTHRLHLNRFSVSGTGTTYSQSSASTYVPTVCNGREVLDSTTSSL

Homo sapiens [30] = organism: Homo sapiens; assay: Binding affinity to GABAA receptor agonist site (unknown origin) 10 umol/L by radioligand binding assay; settings: dose 10.0 µmol/L
Homo sapiens [31] = organism: Homo sapiens; assay: Binding affinity to IP3 receptor (unknown origin) 10 umol/L by radioligand binding assay; settings: dose 10.0 µmol/L
[32] = target: Neuropeptide Y receptor type 1 (Homo sapiens) (UniProt P25929); assay: Binding affinity to Y1 receptor (unknown origin) 10 umol/L by radioligand binding assay; settings: dose 10.0 µmol/L
Homo sapiens [33] = organism: Homo sapiens; assay: Binding affinity to GABA transporter (unknown origin) 10 umol/L by radioligand binding assay; settings: dose 10.0 µmol/L
[34] = target: Histamine H1 receptor (Homo sapiens) (UniProt P35367); assay: Binding affinity to H1 receptor (unknown origin) 10 umol/L by radioligand binding assay; settings: dose 10.0 µmol/L
[35] = target: Muscarinic acetylcholine receptor M5 (Homo sapiens) (UniProt P08912); assay: Binding affinity to muscarinic M5 (unknown origin) 10 umol/L by radioligand binding assay; settings: dose 10.0 µmol/L
Homo sapiens [36] = organism: Homo sapiens; assay: Binding affinity to GABAA chloride channel central (unknown origin) 10 umol/L by radioligand binding assay; settings: dose 10.0 µmol/L
Homo sapiens [37] = organism: Homo sapiens; assay: Binding affinity to GABAA receptor BZ central (unknown origin) 10 umol/L by radioligand binding assay; settings: dose 10.0 µmol/L
Homo sapiens [38] = organism: Homo sapiens; assay: Binding affinity to nACh receptor (unknown origin) 10 umol/L by radioligand binding assay; settings: dose 10.0 µmol/L
[39] = target: Sodium-dependent serotonin transporter (Homo sapiens) (UniProt P31645); assay: Inhibition of serotonin transporter (unknown origin) 10 umol/L by radioligand binding assay relative to control; settings: dose 10.0 µmol/L
Homo sapiens [40] = organism: Homo sapiens; assay: Binding affinity to NMDA receptor polyamine site (unknown origin) 10 umol/L by radioligand binding assay; settings: dose 10.0 µmol/L
[41] = target: Cholecystokinin receptor type A (Homo sapiens) (UniProt P32238); assay: Binding affinity to CCKA (unknown origin) 10 umol/L by radioligand binding assay; settings: dose 10.0 µmol/L
[42] = target: Alpha-1A adrenergic receptor (Homo sapiens) (UniProt P35348); assay: Binding affinity to alpha1A adrenoreceptor (unknown origin) 10 umol/L by radioligand binding assay; settings: dose 10.0 µmol/L
[43] = target: Sigma intracellular receptor 2 (Homo sapiens) (UniProt Q5BJF2); assay: Binding affinity to sigma2 receptor (unknown origin) 10 umol/L by radioligand binding assay; settings: dose 10.0 µmol/L
Homo sapiens [44] = organism: Homo sapiens; assay: Binding affinity to glycine receptor strychnine-sensitive binding site (unknown origin) 10 umol/L by radioligand binding assay; settings: dose 10.0 µmol/L
[45] = target: T1, Voltage-gated L-type calcium channel; assay: Binding affinity to Voltage-dependent L-type calcium channel phenylalkylamine site (unknown origin) 10 umol/L by radioligand binding assay; type: protein assay; settings: 10 µM, dose 10 µmol/L

Sequence of Corticotropin-releasing factor receptor 1 (Homo sapiens) (P34998 whole entry): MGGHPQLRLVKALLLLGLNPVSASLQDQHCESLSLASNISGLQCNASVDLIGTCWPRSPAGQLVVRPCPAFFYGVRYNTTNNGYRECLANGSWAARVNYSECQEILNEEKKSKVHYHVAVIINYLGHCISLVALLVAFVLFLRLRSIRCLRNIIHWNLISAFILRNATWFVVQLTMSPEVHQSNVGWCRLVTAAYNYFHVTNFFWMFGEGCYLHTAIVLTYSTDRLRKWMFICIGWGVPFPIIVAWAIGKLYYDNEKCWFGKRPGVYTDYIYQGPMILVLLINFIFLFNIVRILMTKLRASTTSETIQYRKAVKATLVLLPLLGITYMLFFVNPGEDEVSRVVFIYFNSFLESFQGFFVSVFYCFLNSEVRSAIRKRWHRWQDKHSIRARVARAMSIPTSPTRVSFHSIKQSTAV
Sequence of Histamine H1 receptor (Homo sapiens) (P35367 whole entry): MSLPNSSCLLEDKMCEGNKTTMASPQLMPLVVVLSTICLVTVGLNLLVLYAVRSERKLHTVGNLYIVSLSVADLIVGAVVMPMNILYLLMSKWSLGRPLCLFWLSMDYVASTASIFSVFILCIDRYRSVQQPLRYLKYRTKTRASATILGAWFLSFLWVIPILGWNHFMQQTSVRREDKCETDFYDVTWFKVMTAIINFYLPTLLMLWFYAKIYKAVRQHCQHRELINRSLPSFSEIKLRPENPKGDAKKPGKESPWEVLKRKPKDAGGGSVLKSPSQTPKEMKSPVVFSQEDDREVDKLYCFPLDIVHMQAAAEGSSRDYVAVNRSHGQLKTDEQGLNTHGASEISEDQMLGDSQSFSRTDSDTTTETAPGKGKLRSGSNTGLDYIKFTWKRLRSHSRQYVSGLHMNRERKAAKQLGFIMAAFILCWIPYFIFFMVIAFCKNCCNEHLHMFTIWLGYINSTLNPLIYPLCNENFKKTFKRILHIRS
Sequence of Muscarinic acetylcholine receptor M5 (Homo sapiens) (P08912 whole entry): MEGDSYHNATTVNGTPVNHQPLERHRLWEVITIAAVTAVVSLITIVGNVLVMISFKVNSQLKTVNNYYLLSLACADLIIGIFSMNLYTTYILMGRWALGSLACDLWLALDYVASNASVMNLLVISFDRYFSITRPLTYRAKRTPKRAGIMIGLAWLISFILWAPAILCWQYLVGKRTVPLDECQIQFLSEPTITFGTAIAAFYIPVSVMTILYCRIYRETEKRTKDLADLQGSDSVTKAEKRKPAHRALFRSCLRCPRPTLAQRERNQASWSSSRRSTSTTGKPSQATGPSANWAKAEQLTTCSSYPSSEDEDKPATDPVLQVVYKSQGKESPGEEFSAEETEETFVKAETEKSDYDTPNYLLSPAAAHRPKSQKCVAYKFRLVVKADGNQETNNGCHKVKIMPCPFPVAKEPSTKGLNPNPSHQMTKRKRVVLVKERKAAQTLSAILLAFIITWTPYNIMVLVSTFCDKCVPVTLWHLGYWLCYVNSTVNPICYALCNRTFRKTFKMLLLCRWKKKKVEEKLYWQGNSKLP
Sequence of Beta-1 adrenergic receptor (Homo sapiens) (P08588 whole entry, looked up): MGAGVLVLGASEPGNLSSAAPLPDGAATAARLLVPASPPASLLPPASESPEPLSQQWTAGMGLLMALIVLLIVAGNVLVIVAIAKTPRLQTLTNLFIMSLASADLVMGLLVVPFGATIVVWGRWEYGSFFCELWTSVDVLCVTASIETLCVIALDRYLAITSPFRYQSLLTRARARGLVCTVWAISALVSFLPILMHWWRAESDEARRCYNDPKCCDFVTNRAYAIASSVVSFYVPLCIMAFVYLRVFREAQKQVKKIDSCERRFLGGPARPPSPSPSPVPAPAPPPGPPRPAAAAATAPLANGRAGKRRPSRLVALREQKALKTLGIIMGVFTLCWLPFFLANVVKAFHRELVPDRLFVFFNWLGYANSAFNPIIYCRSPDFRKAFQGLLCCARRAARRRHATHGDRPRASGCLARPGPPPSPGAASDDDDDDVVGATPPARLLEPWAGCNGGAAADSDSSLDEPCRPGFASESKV
Sequence of Muscarinic acetylcholine receptor M3 (Homo sapiens) (P20309 whole entry, looked up): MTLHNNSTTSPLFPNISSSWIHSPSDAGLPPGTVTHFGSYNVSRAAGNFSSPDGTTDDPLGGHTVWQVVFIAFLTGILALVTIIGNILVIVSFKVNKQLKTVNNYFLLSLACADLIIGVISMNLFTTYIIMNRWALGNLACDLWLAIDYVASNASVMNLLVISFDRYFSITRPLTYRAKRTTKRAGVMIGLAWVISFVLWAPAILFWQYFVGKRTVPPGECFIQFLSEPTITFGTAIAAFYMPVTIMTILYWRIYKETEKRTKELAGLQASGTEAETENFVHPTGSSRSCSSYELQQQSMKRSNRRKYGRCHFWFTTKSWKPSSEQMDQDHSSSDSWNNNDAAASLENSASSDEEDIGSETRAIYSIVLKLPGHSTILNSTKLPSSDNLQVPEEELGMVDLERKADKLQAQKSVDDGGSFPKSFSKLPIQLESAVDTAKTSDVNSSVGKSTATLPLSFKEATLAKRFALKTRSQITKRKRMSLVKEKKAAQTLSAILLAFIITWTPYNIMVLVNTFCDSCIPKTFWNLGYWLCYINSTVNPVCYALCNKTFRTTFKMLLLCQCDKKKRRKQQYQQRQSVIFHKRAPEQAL
Sequence of Histamine H2 receptor (Homo sapiens) (P25021 whole entry): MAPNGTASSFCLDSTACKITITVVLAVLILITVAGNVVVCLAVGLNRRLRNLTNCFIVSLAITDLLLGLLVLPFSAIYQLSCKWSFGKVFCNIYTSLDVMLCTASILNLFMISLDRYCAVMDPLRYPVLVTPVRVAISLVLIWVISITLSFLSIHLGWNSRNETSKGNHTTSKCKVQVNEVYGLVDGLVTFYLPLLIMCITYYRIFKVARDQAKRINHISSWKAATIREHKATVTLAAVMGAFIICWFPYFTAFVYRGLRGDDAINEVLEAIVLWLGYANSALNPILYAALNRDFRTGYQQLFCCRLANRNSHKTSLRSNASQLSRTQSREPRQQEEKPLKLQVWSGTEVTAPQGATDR
Sequence of Beta-2 adrenergic receptor (Homo sapiens) (P07550 whole entry, looked up): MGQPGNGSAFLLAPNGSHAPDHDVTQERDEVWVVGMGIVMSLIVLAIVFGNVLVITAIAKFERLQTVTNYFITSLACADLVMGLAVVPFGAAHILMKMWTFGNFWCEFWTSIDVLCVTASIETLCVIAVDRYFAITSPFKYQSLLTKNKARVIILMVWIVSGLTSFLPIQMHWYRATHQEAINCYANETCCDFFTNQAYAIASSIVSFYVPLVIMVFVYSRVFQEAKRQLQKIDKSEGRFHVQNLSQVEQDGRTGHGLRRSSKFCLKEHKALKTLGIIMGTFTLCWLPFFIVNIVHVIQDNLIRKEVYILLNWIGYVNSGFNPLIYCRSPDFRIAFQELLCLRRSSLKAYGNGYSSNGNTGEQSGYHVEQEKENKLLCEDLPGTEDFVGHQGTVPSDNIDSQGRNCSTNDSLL
Sequence of Endothelin-1 receptor (Homo sapiens) (P25101 whole entry): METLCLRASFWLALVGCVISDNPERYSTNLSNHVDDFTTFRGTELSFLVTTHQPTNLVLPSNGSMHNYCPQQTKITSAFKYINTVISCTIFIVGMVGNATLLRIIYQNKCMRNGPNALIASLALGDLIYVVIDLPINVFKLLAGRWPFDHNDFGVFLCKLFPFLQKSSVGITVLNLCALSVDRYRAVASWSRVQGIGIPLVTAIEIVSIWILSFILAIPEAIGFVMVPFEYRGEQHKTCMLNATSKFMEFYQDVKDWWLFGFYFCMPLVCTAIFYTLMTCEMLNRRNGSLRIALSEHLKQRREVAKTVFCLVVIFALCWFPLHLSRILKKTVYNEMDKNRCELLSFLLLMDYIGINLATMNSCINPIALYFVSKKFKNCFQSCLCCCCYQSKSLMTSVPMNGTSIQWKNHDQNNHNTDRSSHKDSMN
Sequence of Neurotensin receptor type 1 (Homo sapiens) (P30989 whole entry): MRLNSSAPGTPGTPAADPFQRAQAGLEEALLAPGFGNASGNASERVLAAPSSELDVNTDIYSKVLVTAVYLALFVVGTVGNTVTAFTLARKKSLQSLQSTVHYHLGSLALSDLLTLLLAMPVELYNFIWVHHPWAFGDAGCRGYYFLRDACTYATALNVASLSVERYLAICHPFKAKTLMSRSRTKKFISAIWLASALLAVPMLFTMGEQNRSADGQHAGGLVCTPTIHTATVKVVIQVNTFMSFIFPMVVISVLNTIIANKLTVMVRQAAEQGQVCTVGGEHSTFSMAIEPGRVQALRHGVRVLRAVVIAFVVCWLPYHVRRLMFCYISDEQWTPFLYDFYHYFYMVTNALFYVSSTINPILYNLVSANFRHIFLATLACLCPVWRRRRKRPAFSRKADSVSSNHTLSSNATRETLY

SMILES: N[C@]1(C(=O)O)[C@H]2[C@@H](C[C@@H]1F)[C@@H]2C(=O)O
- Activity [1]: inactive
- Activity [2]: inactive
- Activity [3]: inactive
- Activity [4]: inactive
- Activity (Homo sapiens [5]): inactive
- Activity [6]: inactive
- Activity (Homo sapiens [7]): inactive
- Activity [8]: inactive
- Activity [9]: inactive
- logD [10]: -4.02
- Activity [11]: inactive
- Activity (Homo sapiens [12]): inactive
- Activity [13]: inactive
- Activity [14]: inactive
- Activity [15]: Not Active
- Activity [16]: inactive
- Activity [17]: inactive
- EC50 [18]: 0.0759 µM
- Activity [19]: inactive
- Activity [20]: inactive
- Activity (Homo sapiens [21]): inactive
- Activity (Homo sapiens [22]): inactive
- Activity (Homo sapiens [23]): inactive
- Activity [24]: inactive
- Activity (Homo sapiens [25]): inactive
- Activity [26]: inactive
- Activity [27]: inactive
- Activity [28]: inactive
- Emax [29]: 102%
- Activity (Homo sapiens [30]): inactive
- Activity (Homo sapiens [31]): inactive
- Activity [32]: inactive
- Activity (Homo sapiens [33]): inactive
- Activity [34]: inactive
- Activity [35]: inactive
- Activity (Homo sapiens [36]): inactive
- Activity (Homo sapiens [37]): inactive
- Activity (Homo sapiens [38]): inactive
- inhibition [39]: inactive
- Activity (Homo sapiens [40]): inactive
- Activity [41]: inactive
- Activity [42]: inactive
- Activity [43]: inactive
- Activity (Homo sapiens [44]): inactive
- Activity [45]: Not Active
